Values of other authors, collected in article PMC12260505, “First-in-Human Phase I/IIa Study of the First-in-Class CDK2/4/6 Inhibitor PF-06873600 Alone or with Endocrine Therapy in Patients with Breast Cancer” (Clinical Cancer Research, 2025).

System: HR+/HER2− mBC, post-ET patient population
Conditions: palbociclib and fulvestrant, PALOMA3; cited from earlier work

Question: What does the source list for `CC(=O)c1c(C)c2cnc(Nc3ccc(N4CCNCC4)cn3)nc2n(C2CCCC2)c1=O` [palbociclib]?
Answer: Median PFS: 9.5 months; ORR: 24.6%
